The data set in a line: Hydrophilic-lipophilic balance (HLB). In kind it is physicochemical. The note with it: single surfactant / MEL mixture. An excerpt:
Dispersants currently used in oil spills are usually a blend of non-ionic and anionic surfactants dissolved in a solvent base. Surfactants are amphiphilic molecules containing both hydrophobic and hydrophilic regions, so they are soluble in both oil and water phases. An empirical parameter used for the classification of surfactants is the hydrophilic-lipophilic balance (HLB) number. The HLB is defined as: […]
Where Mh is the molecular weight of the hydrophilic head group of the surfactant molecule, and M is the molecular mass of the complete molecule. HLB is given on a scale of 1-20. […] A surfactant with an HLB between 8 and 12 may promote either type of emulsion, but generally promotes O/W emulsions.
In an embodiment, the results can be explained by providing the molecular level discussion of the synergy between MEL and polyethylene glycol sorbitan monooleate molecules. As explained earlier, MELs are hydrophobic and polyethylene glycol sorbitan monooleate is quite hydrophilic and water soluble. The HLB of the combination of the two surfactants can be calculated by the following expression: […]
Where, WM and WPGSE are, respectively, the weight fraction of MELs and polyethylene glycol sorbitan ester, in particular polyethylene glycol sorbitan monooleate, in the blend.

Consider 1 substance from patent publication US20250011651A1, “OIL DISPERSANT FORMULATION, METHODS AND USES THEREOF” (INSTITUTO SUPERIOR TÉCNICO, priority 2021, published 2025).

For polyethylene glycol sorbitan monooleate, the HLB worked out at 15.
